According to patent US20160212997A1, “AGRICULTURAL CHEMICALS” (REDAG CROP PROTECTION LTD, priority 2013, published 2016):

Experiments:
Assay type in all cases: in vivo
[1] = system: Cabbage moth, Mamestra brassicae; assay: Potter tower spray on cabbage moth larvae, knockdown and mortality; conditions: Cabbage moths
Description: (§1) The compounds were screened for insecticidal efficacy against aphids, Myzus persicae, Cabbage moth, Mamestra brassicae, diamond black moths, Plutella xylostella, red spider mites, Tetranychus urticae, whitefly, Trialeurodes vaporariorum, in terms of knockdown and mortality.
(§2) Myzus persicae, Cabbage moth, Mamestra brassicae, diamond back moths, Plutella xylostella, red spider mites, Tetranychus urticae, whitefly, Trialeurodes vaporariorum, were obtained from specified laboratory cultures. Mixed sex and age aphids and mites, moth larvae and whitefly scale infested leaves were used in the experiments. Environmental conditions were closely monitored and recorded and were within the optimal range of the target species.
(§3) The compounds were screened at a range of five concentrations, diluted in DMSO. Some of the compounds were screened against aphids, whitefly and red spider mites and other compounds were screened against cabbage moth, and diamond black moths. A carrier only and an untreated control will also be conducted. Treatments were applied directly onto the insects within Petri dishes, using a potter tower.
(§4) Twenty mites and ten aphids, scales and moth larvae were placed within a Petri dish, lined with a suitable leaf disc on a damp cotton wool pad. Scales were already on leaves. The Petri dishes were then sprayed using a potter tower. The number of knocked down and anthropods were assessed at 24 and 48 hours post treatment. Five replicates were be performed for each treatment, for each species.

Tomato moths [2] = assay: Potter tower spray on tomato moths, knockdown and mortality
Tomato moths [3] = assay: as above; remark: listed apart in the source
Description: as §3, §4

aphids, Myzus persicae = assay: Potter tower spray on aphids, knockdown and mortality; conditions: Aphids
Procedure, shortened: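 Ten aphids (mixed sex and age) per Petri dish on a leaf disc were sprayed by Potter tower with compounds at five concentrations in DMSO. Knockdown and mortality were scored at 24 and 48 hours, five replicates per treatment, alongside carrier-only and untreated controls.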

[4] = system: red spider mites, Tetranychus urticae; assay: Potter tower spray on red spider mites, knockdown and mortality; conditions: Spider mites
Description: as §1, §2, §3, §4

CC(c1ccc(C(F)(F)F)nc1)S(C)(=O)=NC#N (stereo not shown) [Compound 11, N-[Methyl-oxo-[1-[6-(trifluoromethyl)-3-pyridyl]ethyl]-λ^6-sulfanylidene]cyanamide, reference compound]
percentage control ([1]; 12.5 g/ha, 24 h): E (A percentage control of from 1 to 19 is indicated by the letter E)
percentage control ([1]; 12.5 g/ha, 48 h): E (A percentage control of from 1 to 19 is indicated by the letter E)
percentage control ([1]; 25 g/ha, 24 h): E (A percentage control of from 1 to 19 is indicated by the letter E)
percentage control ([1]; 25 g/ha, 48 h): E (A percentage control of from 1 to 19 is indicated by the letter E)
percentage control ([1]; 50 g/ha, 24 h): E (A percentage control of from 1 to 19 is indicated by the letter E)
percentage control ([1]; 50 g/ha, 48 h): E (A percentage control of from 1 to 19 is indicated by the letter E)
percentage control ([1]; 100 g/ha, 24 h): E (A percentage control of from 1 to 19 is indicated by the letter E)
percentage control ([1]; 100 g/ha, 48 h): E (A percentage control of from 1 to 19 is indicated by the letter E)
percentage control ([1]; 200 g/ha, 24 h): E (A percentage control of from 1 to 19 is indicated by the letter E)
percentage control ([1]; 200 g/ha, 48 h): E (A percentage control of from 1 to 19 is indicated by the letter E)
percentage control (Tomato moths [2]; 12.5 g/ha, 48 h): E (A percentage control of from 1 to 19 is indicated by the letter E)
percentage control (Tomato moths [2]; 100 g/ha, 24 h): E (A percentage control of from 1 to 19 is indicated by the letter E)
percentage control (Tomato moths [3]; 12.5 g/ha, 24 h): 0%
percentage control (Tomato moths [3]; 25 g/ha, 24 h): E (A percentage control of from 1 to 19 is indicated by the letter E)
percentage control (Tomato moths [3]; 25 g/ha, 48 h): E (A percentage control of from 1 to 19 is indicated by the letter E)
percentage control (Tomato moths [3]; 50 g/ha, 24 h): 0%
percentage control (Tomato moths [3]; 50 g/ha, 48 h): E (A percentage control of from 1 to 19 is indicated by the letter E)
percentage control (Tomato moths [3]; 100 g/ha, 48 h): E (A percentage control of from 1 to 19 is indicated by the letter E)
percentage control (Tomato moths [3]; 200 g/ha, 24 h): E (A percentage control of from 1 to 19 is indicated by the letter E)
percentage control (Tomato moths [3]; 200 g/ha, 48 h): E (A percentage control of from 1 to 19 is indicated by the letter E)
percentage control (aphids, Myzus persicae; 12.5 g/ha, 24 h): C (A percentage control of from 40 to 59 is indicated by the letter C)
percentage control (aphids, Myzus persicae; 12.5 g/ha, 48 h): B (A percentage control of from 60 to 79 is indicated by the letter B)
percentage control (aphids, Myzus persicae; 25 g/ha, 24 h): E (A percentage control of from 1 to 19 is indicated by the letter E)
percentage control (aphids, Myzus persicae; 25 g/ha, 48 h): B (A percentage control of from 60 to 79 is indicated by the letter B)
percentage control (aphids, Myzus persicae; 50 g/ha, 24 h): D (A percentage control of from 20 to 39 is indicated by the letter D)
percentage control (aphids, Myzus persicae; 50 g/ha, 48 h): B (A percentage control of from 60 to 79 is indicated by the letter B)
percentage control (aphids, Myzus persicae; 100 g/ha, 24 h): A (A percentage control of from 80 to 100 is indicated by the letter A)
percentage control (aphids, Myzus persicae; 100 g/ha, 48 h): A (A percentage control of from 80 to 100 is indicated by the letter A)
percentage control (aphids, Myzus persicae; 200 g/ha, 24 h): B (A percentage control of from 60 to 79 is indicated by the letter B)
percentage control (aphids, Myzus persicae; 200 g/ha, 48 h): A (A percentage control of from 80 to 100 is indicated by the letter A)
percentage control ([4]; 12.5 g/ha, 24 h): E (A percentage control of from 1 to 19 is indicated by the letter E)
percentage control ([4]; 12.5 g/ha, 48 h): D (A percentage control of from 20 to 39 is indicated by the letter D)
percentage control ([4]; 25 g/ha, 24 h): E (A percentage control of from 1 to 19 is indicated by the letter E)
percentage control ([4]; 25 g/ha, 48 h): E (A percentage control of from 1 to 19 is indicated by the letter E)
percentage control ([4]; 50 g/ha, 24 h): D (A percentage control of from 20 to 39 is indicated by the letter D)
percentage control ([4]; 50 g/ha, 48 h): D (A percentage control of from 20 to 39 is indicated by the letter D)
percentage control ([4]; 100 g/ha, 24 h): D (A percentage control of from 20 to 39 is indicated by the letter D)
percentage control ([4]; 100 g/ha, 48 h): D (A percentage control of from 20 to 39 is indicated by the letter D)
percentage control ([4]; 200 g/ha, 24 h): C (A percentage control of from 40 to 59 is indicated by the letter C)
percentage control ([4]; 200 g/ha, 48 h): C (A percentage control of from 40 to 59 is indicated by the letter C)
